{
  "source": "paper PMC4360375",
  "about": "(Journal of Medicinal Chemistry, 2015)",
  "origin": "cited, not measured here",
  "system": "GABA uptake, rat synaptosome",
  "conditions": "literature data set, cited from earlier work",
  "key": {"[1]": {"conditions": "ref 10.1016/S0968-0896(01)00148-1"}},
  "note": "Read-outs that look alike come from different tables or passages of the source.",
  "data": [
    {"smiles": "Cc1ccsc1/C(=C/CCN1CCC[C@@H](C(=O)O)C1)c1c(C)cccc1C", "note": "[An_1993_46, s1ccc(C)c1/C(=C/CCN1C[C@@H](CCC1)C(O)=O)/c1c(cccc1C)C]", "values": [
      {"measurement": "pIC50", "setting": "ref 10.1021/jm00064a005", "value": 6.602}
    ]},
    {"smiles": "O=C(O)[C@@H]1CCCN(CCCCC=C(c2ccccc2)c2ccccc2)C1", "note": "[An_1999/4_(R)-27, OC(=O)[C@@H]1CCCN(C1)CCCC\\C=C(\\c1ccccc1)/c1ccccc1]", "values": [
      {"measurement": "pIC50", "setting": "ref 10.1021/jm980492e", "value": 5.646}
    ]},
    {"smiles": "O=C(O)[C@@H]1CCCN(CCOCCN2c3cc(Cl)ccc3CCc3ccc(Cl)cc32)C1", "note": "[An_2001/5_28, Clc1cc2N(c3cc(Cl)ccc3CCc2cc1)CCOCCN1C[C@@H](CCC1)C(O)=O]", "values": [
      {"measurement": "pIC50", "setting": "ref 10.1021/jm990513k", "value": 7.155}
    ]},
    {"smiles": "O=C(O)[C@@H]1CCCN(CCOCC=C(c2ccccc2)c2ccccc2)C1", "note": "[An_1999/4_(R)-21, O(CCN1C[C@@H](CCC1)C(O)=O)C\\C=C(\\c1ccccc1)/c1ccccc1]", "values": [
      {"measurement": "pIC50", "setting": "ref 10.1021/jm980492e", "value": 6.585}
    ]},
    {"smiles": "Cc1ccccc1/C(=N/OCCN1CCC[C@@H](C(=O)O)C1)c1sccc1C", "note": "[An_1999/3_39, s1ccc(C)c1/C(=N\\OCCN1C[C@@H](CCC1)C(O)=O)/c1ccccc1C]", "values": [
      {"measurement": "pIC50", "setting": "ref 10.1021/jm981027k", "value": 7.155}
    ]},
    {"smiles": "O=C(O)[C@@H]1CCCN(CCON=C(c2ccc(F)cc2F)c2ccc(F)cc2F)C1", "note": "[An_1999/3_68, Fc1cc(F)ccc1\\C(=N\\OCCN1C[C@@H](CCC1)C(O)=O)\\c1ccc(F)cc1F]", "values": [
      {"measurement": "pIC50", "setting": "ref 10.1021/jm981027k", "value": 7}
    ]},
    {"smiles": "COc1cccc(/C(=N/OCCN2CCC[C@@H](C(=O)O)C2)c2sccc2C)c1", "note": "[An_1999/3_86, s1ccc(C)c1\\C(=N/OCCN1C[C@@H](CCC1)C(O)=O)\\c1cc(OC)ccc1]", "values": [
      {"measurement": "pIC50", "setting": "ref 10.1021/jm981027k", "value": 7.046}
    ]},
    {"smiles": "O=C(O)C1=CCCN(CC/C=C(\\c2ccccc2)c2cccs2)C1", "note": "[An_1993_36, s1cccc1/C(=C/CCN1CC(=CCC1)C(O)=O)/c1ccccc1]", "values": [
      {"measurement": "pIC50", "setting": "ref 10.1021/jm00064a005", "value": 6.577}
    ]},
    {"smiles": "Cc1ccc(/C(=C\\CCN2CCC[C@@H](C(=O)O)C2)c2sccc2C)c(C)c1", "note": "[An_1993_47, s1ccc(C)c1/C(=C/CCN1C[C@@H](CCC1)C(O)=O)/c1ccc(cc1C)C]", "values": [
      {"measurement": "pIC50", "setting": "ref 10.1021/jm00064a005", "value": 6.585}
    ]},
    {"smiles": "Cc1cc(Cl)ccc1/C(=N/OCCN1CCC[C@@H](C(=O)O)C1)c1sccc1C", "note": "[An_1999/3_84, Clc1cc(C)c(cc1)\\C(=N\\OCCN1C[C@@H](CCC1)C(O)=O)\\c1sccc1C]", "values": [
      {"measurement": "pIC50", "setting": "ref 10.1021/jm981027k", "value": 7.046}
    ]},
    {"smiles": "O=C(O)[C@H]1CCCN(CCON=C(c2ccccc2)c2ccccc2)C1", "note": "[An_1999/3_61, O(\\N=C(\\c1ccccc1)/c1ccccc1)CCN1C[C@H](CCC1)C(O)=O]", "values": [
      {"measurement": "pIC50", "setting": "ref 10.1021/jm981027k", "value": 6.377}
    ]},
    {"smiles": "Cc1ccsc1/C(=N\\OCCN1CCC[C@@H](C(=O)O)C1)c1cccs1", "note": "[An_1999/3_81, s1ccc(C)c1\\C(=N/OCCN1C[C@@H](CCC1)C(O)=O)\\c1sccc1]", "values": [
      {"measurement": "pIC50", "setting": "ref 10.1021/jm981027k", "value": 7.155}
    ]},
    {"smiles": "O=C(O)[C@@H]1CCCN(CCOCCn2c3ccccc3c3ccccc32)C1", "note": "[An_2001/5_19, O(CCN1C[C@@H](CCC1)C(O)=O)CCn1c2c(c3c1cccc3)cccc2]", "values": [
      {"measurement": "pIC50", "setting": "ref 10.1021/jm990513k", "value": 4.398}
    ]},
    {"smiles": "O=C(O)[C@@H]1CCCN(CCO/N=C(/Cc2ccccc2F)c2ccccc2F)C1", "note": "[An_2001/6_18, Fc1ccccc1C\\C(=N\\OCCN1C[C@@H](CCC1)C(O)=O)\\c1ccccc1F]", "values": [
      {"measurement": "pIC50", "setting": "[1]", "value": 7.097}
    ]},
    {"smiles": "O=C(O)[C@@H]1CCCN(CCOCCN2c3ccccc3Sc3ccccc32)C1", "note": "[An_2001/5_21, S1c2c(N(c3c1cccc3)CCOCCN1C[C@@H](CCC1)C(O)=O)cccc2]", "values": [
      {"measurement": "pIC50", "setting": "ref 10.1021/jm990513k", "value": 6.509}
    ]},
    {"smiles": "Cc1ccsc1/C(=C/CCN1CCC=C(C(=O)O)C1)c1cccs1", "note": "[An_1993_42, s1ccc(C)c1\\C(=C\\CCN1CC(=CCC1)C(O)=O)\\c1sccc1]", "values": [
      {"measurement": "pIC50", "setting": "ref 10.1021/jm00064a005", "value": 6.959}
    ]},
    {"smiles": "O=C(O)[C@@H]1CCCN(CCOCc2cccc(Cc3ccccc3)c2)C1", "note": "[An_2001/6_38, O(Cc1cc(ccc1)Cc1ccccc1)CCN1C[C@@H](CCC1)C(O)=O]", "values": [
      {"measurement": "pIC50", "setting": "[1]", "value": 5.523}
    ]},
    {"smiles": "O=C(O)[C@@H]1CCCN(CCOCCN2c3ccc(Br)cc3CCc3cc(Br)ccc32)C1", "note": "[An_2001/5_31, Brc1cc2CCc3cc(Br)ccc3N(c2cc1)CCOCCN1C[C@@H](CCC1)C(O)=O]", "values": [
      {"measurement": "pIC50", "setting": "ref 10.1021/jm990513k", "value": 5.987}
    ]},
    {"smiles": "O=C(O)[C@@H]1CCCN(CCOCCC(c2ccc(F)cc2)c2ccc(F)cc2)C1", "note": "[An_1999/4_(R)-33, Fc1ccc(cc1)C(CCOCCN1C[C@@H](CCC1)C(O)=O)c1ccc(F)cc1]", "values": [
      {"measurement": "pIC50", "setting": "ref 10.1021/jm980492e", "value": 6.167}
    ]},
    {"smiles": "O=C(O)[C@@H]1CCCN(CCON=C(Cc2ccccc2)Cc2ccccc2)C1", "note": "[An_2001/6_19, O(\\N=C(\\Cc1ccccc1)/Cc1ccccc1)CCN1C[C@@H](CCC1)C(O)=O]", "values": [
      {"measurement": "pIC50", "setting": "[1]", "value": 5.987}
    ]},
    {"smiles": "CC/C=C(/C=N/OCCN1CCC[C@@H](C(=O)O)C1)c1ccccc1", "note": "[An_2001/6_20, O(\\N=C\\C(=C\\CC)\\c1ccccc1)CCN1C[C@@H](CCC1)C(O)=O]", "values": [
      {"measurement": "pIC50", "setting": "[1]", "value": 6.125}
    ]},
    {"smiles": "CN1CCC[C@@H]1/C(=N\\OCCN1CCC[C@@H](C(=O)O)C1)c1ccccc1", "note": "[An_1999/3_95, O(\\N=C(/[C@@H]1N(CCC1)C)\\c1ccccc1)CCN1C[C@@H](CCC1)C(O)=O]", "values": [
      {"measurement": "pIC50", "setting": "ref 10.1021/jm981027k", "value": 7.222}
    ]},
    {"smiles": "CC(C)C/C(=N/OCCN1CCC[C@@H](C(=O)O)C1)c1ccccc1", "note": "[An_2001/6_15, O(\\N=C(\\CC(C)C)/c1ccccc1)CCN1C[C@@H](CCC1)C(O)=O]", "values": [
      {"measurement": "pIC50", "setting": "[1]", "value": 6.553}
    ]},
    {"smiles": "Cc1ccsc1C(=COCCN1CCC[C@@H](C(=O)O)C1)c1sccc1C", "note": "[compound 6, s1ccc(C)c1\\C(=C\\OCCN1C[C@@H](CCC1)C(O)=O)\\c1sccc1C]", "values": [
      {"measurement": "pIC50", "setting": "ref 10.1021/jm981027k", "value": 7.854}
    ]},
    {"smiles": "O=C(O)[C@@H]1CCCN(CCO/N=C(/Cc2ccccc2)c2ccccc2)C1", "note": "[An_2001/6_16, O(\\N=C(\\Cc1ccccc1)/c1ccccc1)CCN1C[C@@H](CCC1)C(O)=O]", "values": [
      {"measurement": "pIC50", "setting": "[1]", "value": 6.87}
    ]}
  ]
}
